Test results: US10626126B2, “Compounds” (Pulmocide Limited, priority 2016, dated 2020)
pIC50: −log10 of the molar value.

Tests used:
Format in all cases: cell-based
[1] = system: RSV A2 strain; test: RSV A2 induced CPE in HEp2 cells; conditions: human respiratory syncytial virus; for pIC50: HEp-2, 120 h, 5 days; for inhibition at 0.01 µg/mL: HEp-2, at 0.01 μg/mL
Protocol: (§1) HEp2 cells were seeded (10^3/well/50 μL) in 384-well plates (Catalogue number 353962, BD Falcon, Oxford, UK) in 5% FBS-DMEM (containing 2 mM L-glutamine and 1 mM sodium pyruvate) one day before infection. […] Simultaneously, test compounds (0.5 μL DMSO solution) were added to 100 μL of HEp2 cell culture with virus solution to provide a final DMSO solution of 0.5%. […] Sigma-Aldrich, Dorset, UK) was added to each well and the plate incubated for a further 6 hr (37° C./5% CO2). The fluorescence of each well [545 nm (excitation)/590 nm (emission)] was determined using a multi-scanner (Clariostar: BMG, Buckinghamshire, UK). The percentage inhibition for each well was calculated and the IC50, IC75 and IC90 values were calculated from the concentration-response curve generated for each test compound.

[2] = system: RSV B Washington strain; test: RSV B induced CPE in HEp2 cells; conditions: human respiratory syncytial virus; for pIC50: HEp-2, 144 h, 6 days; for inhibition at 1 µg/mL: HEp-2, at 1 μg/mL; for inhibition at 0.1 µg/mL: HEp-2, at 0.1 μg/mL
Protocol: as §1

[3] = Cell viability: resazurin assay; conditions: human, HEp2 cells
Protocol: HEp2 cells were seeded in 384-well plates (10^3/well/50 μL; BD Falcon Ref 353962) in FBS DMEM (5%, containing 2 mM L-glutamine and 1 mM sodium pyruvate) one day before experimentation. Serum-free DMEM (50 μL) was added to test wells, while for control wells the media was removed and sterile water (100 μL) added. Test compounds (0.5 μL DMSO solution) were added to give a final DMSO concentration of 0.5%. HEp2 cells were incubated with each test compound for 5 days (37° C./5% CO2 in 2.5% FBS) and then resazurin stock solution (5 μL; 0.03%) was added to each well and the plate incubated for a further 6 hr (37° C./5% CO2). The fluorescence of each well at 545 nm (excitation) and 590 nm (emission) was determined using a multi-scanner (Clariostar: BMG Labtech). The percentage loss of cell viability was calculated for each well relative to vehicle (0.5% DMSO) treatment. Note that any apparent increase in cell viability associated with test compound treatment relative to vehicle is consequently tabulated as a negative percentage. Where appropriate, a CC50 value was calculated from the concentration-response curve generated from the concentration-response curve for each test compound.

With `Cc1cnc(N2CC3(CCOCC3)C2)c(C(=O)Nc2ccc(C(=O)N3CCc4cc(C(=O)Nc5c(F)cccc5Cl)sc4-c4sccc43)c(F)c2)c1` [Example 19, N-(2-chloro-6-fluorophenyl)-4-(2-fluoro-4-(5-methyl-2-(7-oxa-2-azaspiro[3.5]nonan-2-yl)nicotinamido)benzoyl)-5,6-dihydro-4H-dithieno[3,2-b:2′,3′-d]azepine-8-carboxamide] the pIC50 [1] was 9.74, the inhibition at 0.01 µg/mL [1] was 93% and the pIC50 [2] was 7.54. For the same compound, the inhibition at 1 µg/mL [2] was 86% and the CC50 at 5 days [3] was > 13200 nM.

Compound `COc1cnc(N2CC3(CCOCC3)C2)c(C(=O)Nc2ccc(C(=O)N3CCc4cc(C(=O)Nc5c(F)cccc5F)sc4-c4sccc43)cc2)c1` [Example 20, N-(2,6-difluorophenyl)-4-(4-(5-methoxy-2-(7-oxa-2-azaspiro[3.5]nonan-2-yl)nicotinamido)benzoyl)-5,6-dihydro-4H-dithieno[3,2-b:2′,3′-d]azepine-8-carboxamide] has a pIC50 [1] of 9.77, an inhibition at 0.01 µg/mL [1] of 100% and a pIC50 [2] of 7.74. The inhibition at 0.1 µg/mL [2] was 100% and the CC50 at 5 days [3] was > 13500 nM.

In the case of `Cc1ccc(C(=O)Nc2ccc(C(=O)N3CCc4cc(C(=O)Nc5c(F)cccc5F)sc4-c4sccc43)cc2)c(N2CC3(CCOCC3)C2)n1` [Example 21, N-(2,6-difluorophenyl)-4-(4-(6-methyl-2-(7-oxa-2-azaspiro [3.5]nonan-2-yl)nicotinamido)benzoyl)-5,6-dihydro-4H-dithieno[3,2-b:2′,3′-d]azepine-8-carboxamide], the pIC50 [1] was 9.43, the inhibition at 0.01 µg/mL [1] was 91% and the pIC50 [2] was 7.77. For the same compound, the inhibition at 0.1 µg/mL [2] was 91% and the CC50 at 5 days [3] was > 13800 nM.

Work on `COc1ccc(C(=O)Nc2ccc(C(=O)N3CCc4cc(C(=O)Nc5c(F)cccc5F)sc4-c4sccc43)cc2)c(N2CC3(CCOCC3)C2)n1` [Example 22, N-(2,6-difluorophenyl)-4-(4-(6-methoxy-2-(7-oxa-2-azaspiro[3.5]nonan-2-yl)nicotinamido)benzoyl)-5,6-dihydro-4H-dithieno[3,2-b:2′,3′-d]azepine-8-carboxamide] yielded a pIC50 [1] of 8.77, an inhibition at 0.01 µg/mL [1] of 94% and a pIC50 [2] of 6.80. For the same compound, the inhibition at 1 µg/mL [2] was 94% and the CC50 at 5 days [3] was > 13500 nM.

Work on `Cc1cc(C(=O)Nc2ccc(C(=O)N3CCc4cc(C(=O)Nc5c(F)cccc5F)sc4-c4sccc43)c(F)c2)c(N2CC3(CCOCC3)C2)nc1C` [Example 23, N-(2,6-difluorophenyl)-4-(4-(5,6-dimethyl-2-(7-oxa-2-azaspiro[3.5]nonan-2-yl)nicotinamido)-2-fluorobenzoyl)-5,6-dihydro-4H-dithieno[3,2-b:2′,3′-d]azepine-8-carboxamide] yielded a pIC50 [1] of 9.17, an inhibition at 0.01 µg/mL [1] of 96% and a pIC50 [2] of 7.15. For the same compound, the inhibition at 1 µg/mL [2] was 96% and the CC50 at 5 days [3] was > 13200 nM.

In the case of `Cc1cccc(F)c1NC(=O)c1cc2c(s1)-c1sccc1N(C(=O)c1ccc(NC(=O)c3cc4c(nc3N3CC5(CCOCC5)C3)CCC4)cc1)CC2` [Example 24, 4-(4-(2-(7-oxa-2-azaspiro[3.5]nonan-2-yl)-6,7-dihydro-5H-cyclopenta[b]pyridine-3-carboxamido)benzoyl)-N-(2-fluoro-6-methylphenyl)-5,6-dihydro-4H-dithieno[3,2-b:2′,3′-d] azepine-8-carboxamide], the pIC50 [1] was 9.27, the inhibition at 0.01 µg/mL [1] was 98% and the pIC50 [2] was 7.96. The inhibition at 0.1 µg/mL [2] was 84% and the CC50 at 5 days [3] was > 13400 nM.

`O=C(Nc1c(F)cccc1F)c1cc2c(s1)-c1sccc1N(C(=O)c1ccc(NC(=O)c3cc4c(nc3N3CC5(CCOCC5)C3)CCOC4)cc1)CC2` [Example 25, N-(4-(8-((2,6-difluorophenyl)carbamoyl)-5,6-dihydro-4H-dithieno[3,2-b:2′,3′-d]azepine-4-carbonyl)phenyl)-2-(7-oxa-2-azaspiro[3.5]nonan-2-yl)-7,8-dihydro-5H-pyrano[4,3-b]pyridine-3-carboxamide] gave a pIC50 [1] of 9.74, an inhibition at 0.01 µg/mL [1] of 100% and a pIC50 [2] of 8.00. The inhibition at 0.1 µg/mL [2] was 89% and the CC50 at 5 days [3] was > 13000 nM.

`Cc1cccc(F)c1NC(=O)c1cc2c(s1)-c1sccc1N(C(=O)c1ccc(NC(=O)c3cc4c(nc3N3CC5(CCOCC5)C3)CCOC4)cc1)CC2` [Example 26, N-(4-(8-((2-fluoro-6-methylphenyl)carbamoyl)-5,6-dihydro-4H-dithieno[3,2-b:2′,3′-d]azepine-4-carbonyl)phenyl)-2-(7-oxa-2-azaspiro[3.5]nonan-2-yl)-7,8-dihydro-5H-pyrano[4,3-b]pyridine-3-carboxamide] showed a pIC50 [1] of 9.00, an inhibition at 0.01 µg/mL [1] of 98% and a pIC50 [2] of 7.77. The inhibition at 0.1 µg/mL [2] was 93% and the CC50 at 5 days [3] was > 13100 nM.

Compound `O=C(Nc1c(F)cccc1F)c1cc2c(s1)-c1sccc1N(C(=O)c1ccc(NC(=O)c3cc4ccccc4nc3N3CC4(CCOCC4)C3)cc1)CC2` [Example 27, 4-(4-(2-(7-oxa-2-azaspiro[3.5]nonan-2-yl)quinoline-3-carboxamido)benzoyl)-N-(2,6-difluorophenyl)-5,6-dihydro-4H-dithieno[3,2-b:2′,3′-d]azepine-8-carboxamide] has a pIC50 [1] of 9.20, an inhibition at 0.01 µg/mL [1] of 94% and a pIC50 [2] of 7.49. For the same compound, the inhibition at 1 µg/mL [2] was 93% and the CC50 at 5 days [3] was > 13100 nM.

`O=C(Nc1c(F)cccc1F)c1cc2c(s1)-c1sccc1N(C(=O)c1ccc(NC(=O)c3cc4sccc4nc3N3CC4(CCOCC4)C3)cc1F)CC2` [Example 28, 4-(4-(5-(7-oxa-2-azaspiro[3.5]nonan-2-yl)thieno[3,2-b]pyridine-6-carboxamido)-2-fluorobenzoyl)-N-(2,6-difluorophenyl)-5,6-dihydro-4H-dithieno[3,2-b:2′,3′-d] azepine-8-carboxamide] showed a pIC50 [1] of 9.32, an inhibition at 0.01 µg/mL [1] of 89% and a pIC50 [2] of 7.82. The inhibition at 0.1 µg/mL [2] was 92% and the CC50 at 5 days [3] was > 12700 nM.

With `O=C(Nc1c(F)cccc1F)c1cc2c(s1)-c1sccc1N(C(=O)c1ccc(NC(=O)c3cccnc3N3CCC4(CC3)COC4)cc1)CC2` [Example 29, 4-(4-(2-(2-oxa-7-azaspiro[3.5]nonan-7-yl)nicotinamido)benzoyl)-N-(2,6-difluorophenyl)-5,6-dihydro-4H-dithieno [3,2-b:2′,3′-d]azepine-8-carboxamide] the pIC50 [1] was 8.44, the inhibition at 0.01 µg/mL [1] was 100% and the pIC50 [2] was 6.31. For the same compound, the inhibition at 1 µg/mL [2] was 51% and the CC50 at 5 days [3] was > 14000 nM.

`Cc1cnc(N2CCC3(CC2)COC3)c(C(=O)Nc2ccc(C(=O)N3CCc4cc(C(=O)Nc5c(F)cccc5F)sc4-c4sccc43)cc2)c1` [Example 30, N-(2,6-difluorophenyl)-4-(4-(5-methyl-2-(2-oxa-7-azaspiro[3.5]nonan-7-yl)nicotinamido)benzoyl)-5,6-dihydro-4H-dithieno[3,2-b:2′,3′-d]azepine-8-carboxamide] gave a pIC50 [1] of 9.38, an inhibition at 0.01 µg/mL [1] of 100% and a pIC50 [2] of 6.89. For the same compound, the inhibition at 1 µg/mL [2] was 100% and the CC50 at 5 days [3] was > 13800 nM.

`O=C(Nc1c(F)cccc1F)c1cc2c(s1)-c1sccc1N(C(=O)c1ccc(NC(=O)c3cccnc3N3CC4(COC4)C3)cc1)CC2` [Example 31, 4-(4-(2-(2-oxa-6-azaspiro[3.3]heptan-6-yl)nicotin-amido)benzoyl)-N-(2,6-difluorophenyl)-5,6-dihydro-4H-dithieno[3,2-b:2′,3′-d]azepine-8-carboxamide] gave a pIC50 [1] of 7.97, an inhibition at 0.01 µg/mL [1] of 62% and a pIC50 [2] of 5.98. The inhibition at 1 µg/mL [2] was 57% and the CC50 at 5 days [3] was > 14600 nM.

`Cc1cnc(N2CC3(COC3)C2)c(C(=O)Nc2ccc(C(=O)N3CCc4cc(C(=O)Nc5c(F)cccc5F)sc4-c4sccc43)cc2)c1` [Example 32, N-(2,6-difluorophenyl)-4-(4-(5-methyl-2-(2-oxa-6-azaspiro[3.3]heptan-6-yl)nicotinamido)benzoyl)-5,6-dihydro-4H-dithieno[3,2-b:2′,3′-d]azepine-8-carboxamide] gave a pIC50 [1] of 9.23, an inhibition at 0.01 µg/mL [1] of 100% and a pIC50 [2] of 6.22. For the same compound, the inhibition at 1 µg/mL [2] was 90% and the CC50 at 5 days [3] was > 14300 nM.

For `O=C(Nc1c(F)cccc1F)c1cc2c(s1)-c1sccc1N(C(=O)c1ccc(NC(=O)c3cccnc3N3CCC4(CCOCC4)CC3)cc1)CC2` [Example 33, 4-(4-(2-(3-oxa-9-azaspiro[5.5]undecan-9-yl)nicotin amido)benzoyl)-N-(2,6-difluorophenyl)-5,6-dihydro-4H-dithieno[3,2-b:2′,3′-d]azepine-8-carboxamide], the pIC50 [1] was 8.85, the inhibition at 0.01 µg/mL [1] was 100% and the pIC50 [2] was < 5.87. The inhibition at 1 µg/mL [2] was 23% and the CC50 at 5 days [3] was > 13500 nM.
